Active and inactive are the calls of the source. How the calls were made is not given here. Some results are limits rather than exact numbers.

The target in this assay is Ubiquitin carboxyl-terminal hydrolase 10 (Homo sapiens) (UniProt Q14694). Put plainly: ubiquitin-specific protease 10 DUB inhibitors, concentration-effect, biochemical, verification of primary screen actives (AID 1645863).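 Further: potency values describe inhibition of USP10 cleavage of a fluorogenic ubiquitin substrate.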 The note with it: USP10 deubiquitinase enzymatic assay.
Sequence of Ubiquitin carboxyl-terminal hydrolase 10 (Homo sapiens) (Q14694 whole entry, looked up): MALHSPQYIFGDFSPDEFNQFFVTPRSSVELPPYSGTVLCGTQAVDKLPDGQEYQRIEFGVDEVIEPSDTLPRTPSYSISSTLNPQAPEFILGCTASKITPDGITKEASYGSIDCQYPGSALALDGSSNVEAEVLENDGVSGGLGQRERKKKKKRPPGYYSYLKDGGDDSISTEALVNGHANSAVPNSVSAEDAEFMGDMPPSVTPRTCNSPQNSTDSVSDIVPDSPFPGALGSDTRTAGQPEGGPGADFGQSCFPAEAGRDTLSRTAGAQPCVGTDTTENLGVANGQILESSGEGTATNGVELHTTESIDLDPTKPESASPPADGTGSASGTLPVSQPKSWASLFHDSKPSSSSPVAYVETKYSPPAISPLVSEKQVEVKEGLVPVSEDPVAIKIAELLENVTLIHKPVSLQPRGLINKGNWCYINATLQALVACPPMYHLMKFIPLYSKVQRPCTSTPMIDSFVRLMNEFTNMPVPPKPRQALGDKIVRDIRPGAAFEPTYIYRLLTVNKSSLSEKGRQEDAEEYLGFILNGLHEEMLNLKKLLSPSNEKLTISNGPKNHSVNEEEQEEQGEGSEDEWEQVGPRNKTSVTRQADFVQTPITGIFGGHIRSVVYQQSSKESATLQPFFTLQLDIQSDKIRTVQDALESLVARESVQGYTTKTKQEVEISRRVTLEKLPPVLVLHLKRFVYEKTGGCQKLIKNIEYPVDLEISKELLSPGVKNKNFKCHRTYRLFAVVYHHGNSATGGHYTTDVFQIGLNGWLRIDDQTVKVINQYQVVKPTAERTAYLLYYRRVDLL
One may read the IC50 as the concentration that gives 50% inhibition. Take `CC[C@H](C)[C@H](NC(=O)[C@H]([C@@H](C)CC)N(C)C(C)=O)C(=O)N[C@H](C(=O)N[C@@H](CC(C)C)C(=O)C1(C)CO1)[C@@H](C)O` (stereo partly drawn): the IC50 is > 40 µM (inactive).

Take `COC(=O)c1ccccc1NC(=O)CSc1nnc(CNc2ccc(F)cc2)n1CC1CCCO1` (stereo not drawn): the IC50 is > 40 µM (inactive).

`Cc1ccc2cc(CNc3ccccc3)c(=O)n(CC(=O)Nc3ccccc3C)c2c1`: the IC50 was > 40 µM (inactive).

For the compound `Cc1ccc(CC(=O)Nc2ccc(C)cc2-c2n[nH]c(C3CC3)n2)cc1`, the IC50 was > 40 µM (inactive).

Regarding `Cc1ccccc1NC(=O)Cn1c(=O)n(-c2ccc(CC(=O)NCCc3ccccc3)cc2)c(=O)c2sccc21`, the IC50 is 12.8 µM.

Regarding `Cc1ccc(NC(=O)Cn2cncc(-c3nc(-c4ccccc4)cs3)c2=O)cc1F`, the IC50 is 22.9 µM.

As to `Cc1ccc2nc(CNc3ccc(F)cc3C)cc(=O)n2c1`, the IC50 was > 40 µM (inactive).

For `COc1cc(NC(=O)Cn2nc(-c3ccc(F)cc3)ccc2=O)ccc1-n1cnnn1`, the IC50 was > 40 µM (inactive).

For the compound `Cc1ccc(NC(=O)Cc2sc(Nc3ccc(C)cc3)nc2O)cc1`, the IC50 is > 40 µM (inactive).

Consider `Cc1ccc2[nH]c(=O)c(-c3nc4ccc(C)cn4c3NCc3ccc(F)cc3)cc2c1`, for which the IC50 was 20.3 µM.

Regarding `COc1ccc(-c2nc(-c3cn(-c4ccccc4)nn3)no2)c(OC)c1`, the IC50 is > 40 µM (inactive).

Take `COc1ccccc1C(=O)Nc1ccc(-c2nc3ccccc3o2)c(O)c1`: the IC50 is > 40 µM (inactive).

Turning to `Cc1cc(=O)n(CC(=O)Nc2ccc3c(c2)OCO3)c2c1c(-c1ccccc1)nn2-c1ccccc1`, the IC50 is > 40 µM (inactive).

As to `CC(=O)Nc1ccc(S(=O)(=O)NCc2ccc(C(=O)NCCc3ccc(Cl)cc3)cc2)cc1`, the IC50 was > 40 µM (inactive).

`COc1cccc(-c2cncc(C3CCN(S(=O)(=O)N(C)C)CC3)n2)c1`: the IC50 is > 40 µM (inactive).

In the case of `CCC(C(=O)C(C)C(O)C(C)CCc1ccc(C)c(O)c1C(=O)O)C1OC(CC)(C2CCC(O)(CC)C(C)O2)CC1C` (stereo not drawn), the half-maximal inhibitory concentration (IC50) is 9.99 µM.

With `O=C(CCCCCn1c(=O)c2sccc2n(CC(=O)c2ccc(Cl)c(Cl)c2)c1=O)NCc1ccc2c(c1)OCO2`, the IC50 is 10.6 µM.

`COc1ccc(-c2noc(C3(c4ccc(F)cc4)CCOCC3)n2)cc1`: the IC50 is > 40 µM (inactive).

Turning to `Cc1ccc(Cl)cc1NC(=O)c1cc(-c2ccccn2)n[nH]1`, the IC50 is > 40 µM (inactive).

For `Cc1ccc(S(=O)(=O)N2CCC3(CC2)OC(=O)Nc2ccccc23)cc1`, the IC50 was > 40 µM (inactive).

Consider `O=C(CSc1nc2cc(C(F)(F)F)ccc2s1)NCC(=O)c1ccccc1`, for which the IC50 was 18.1 µM.

`O=c1c2ccccc2oc2nc(-c3cccs3)n(-c3ccccc3)c(=O)c12`: the half-maximal inhibitory concentration (IC50) is 16.6 µM.

In the case of `Cn1c(=O)c(C(=O)Nc2ccc(Br)cc2)nc2ccccc21`, the concentration for half-maximal inhibition (IC50) is 26.5 µM.

For `COc1ccc(Cl)cc1NC(=O)c1cc(-c2ccccn2)n[nH]1`, the half-inhibitory concentration (IC50) is 9.33 µM.

In the case of `Cc1cc(N2CCOCC2)nc(N2CCN(C(=O)C(C)Oc3ccccc3)CC2)n1` (stereo not drawn), the IC50 is > 40 µM (inactive).

Turning to `CC(C)Cc1nc2sc3c(SCC(=O)N4CCC(C)CC4)ncnc3c2c2c1COC(C)(C)C2`, the IC50 was > 40 µM (inactive).

Take `Cc1ccc2c(c1)c(=O)c(C(=O)c1ccccc1)cn2CC(=O)Nc1ccc2c(c1)OCO2`: the IC50 was > 40 µM (inactive).

`COc1ccc(-c2cc3c(=O)n(CC(=O)NCc4ccccc4)ncn3n2)cc1`: the IC50 was > 40 µM (inactive).

Turning to `O=C(O)c1nccnc1C(=O)N1CCc2ccccc2C1`, the IC50 is > 40 µM (inactive).

`Cc1cc(NC(=O)Cn2c(=O)n(Cc3ccco3)c(=O)c3ccc(C(=O)NCCc4ccccc4)cc32)n[nH]1`: the IC50 is 23 µM.

As to `COc1ccc(-n2c(=O)c3ccc(C(=O)NCCc4ccccc4)cc3n(CC(=O)NCc3ccco3)c2=O)cc1`, the IC50 was > 40 µM (inactive).

In the case of `COc1cccc(N2CCCN(C(=O)c3ccc4nc(C)[nH]c4c3)CC2)c1`, the IC50 was > 40 µM (inactive).

Regarding `Cc1cccc(N2C(=O)/C(=C\c3cc(C#N)n(C)c3C)c3ccccc3C2=O)c1`, the 50% inhibitory concentration (IC50) was 34.1 µM.

With `O=C(NC1(O)C(=O)c2ccccc2C1=O)c1ccc(-c2csnn2)cc1`, the IC50 was 9.45 µM.

For `O=C(NC1CCCCC1)C(c1ccc(F)cc1)N(C(=O)C1COc2ccccc2O1)c1ccc2c(c1)OCO2` (stereo not drawn), the IC50 was > 40 µM (inactive).

In the case of `Cc1nc(C(=O)NC2(O)C(=O)c3ccccc3C2=O)cs1`, the IC50 was 6.82 µM.

Turning to `Cc1c(C#N)c2ccccc2n1CC(=O)NCc1ccc2c(c1)OCO2`, the IC50 was > 40 µM (inactive).

Turning to `Nc1ccc2oc(-c3cccc(-c4nc5cc(N)ccc5o4)n3)nc2c1`, the half-maximal inhibitory concentration (IC50) is 26.6 µM.

Regarding `CC1(C(=O)NCc2ccc(F)cc2)Cn2nc(-c3ccco3)cc2C(=O)N1c1ccc2c(c1)OCCO2` (stereo not drawn), the IC50 is > 40 µM (inactive).

Take `O=C(NCc1ccc(F)cc1)c1cccc(Nc2nc3ccccc3n3cnnc23)c1`: the IC50 was 38 µM.

Regarding `O=c1[nH]cccc1NS(=O)(=O)c1ccc(F)cc1`, the IC50 was > 40 µM (inactive).

Consider `COC(=O)c1ccc2c(=O)n(CCCCCC(=O)NCCc3ccc(OC)c(OC)c3)c(=O)[nH]c2c1`, for which the IC50 was > 40 µM (inactive).

As to `O=C(Cn1cccc(-c2nc(-c3ccccc3)no2)c1=O)Nc1ccccc1F`, the IC50 is > 40 µM (inactive).

`Cc1cccc(NC(=O)CCCc2nnc3c(=O)n(-c4cccc(F)c4)ccn23)c1`: the IC50 is > 40 µM (inactive).

As for `O=C(CCCC(=O)N(c1ccc2c(c1)OCCO2)C(C(=O)NC1CCCCC1)c1ccc(F)cc1)Nc1ccccn1` (stereo not drawn), the 50% inhibitory concentration (IC50) was 27.6 µM.

For `COc1ccc(Cl)cc1NC(=O)Cn1c(=O)n(CCCCC(=O)NCCc2ccccc2)c(=O)c2ccccc21`, the IC50 was 13.4 µM.

For `Cn1c(=O)[nH]c(=O)c2c1nc(N1CCc3ccccc3C1)n2CCSc1nnnn1-c1ccccc1`, the IC50 was > 40 µM (inactive).

On to `O=S1(=O)CCN(CC2CCCO2)c2c(Oc3ccccc3)nc(F)c(Cl)c21` (stereo not drawn), for which the IC50 was > 40 µM (inactive).

As to `COc1ccc(CC(=O)OCC(=O)N2c3ccccc3NC(=O)C2(C)C)cc1`, the IC50 is > 40 µM (inactive).

As for `O=C(COc1ccc(N2CC(C(=O)NCc3ccc4c(c3)OCO4)CC2=O)cc1)Nc1ccc(F)cc1` (stereo not drawn), the IC50 is 20.8 µM.

Regarding `CCOc1ccc(-c2nnc(-c3cnc4onc(C5CCCC5)c4c3)o2)cc1`, the 50% inhibitory concentration (IC50) is 25 µM.

As for `CCCC(O)CCCCCCCc1cc(O)cc(O)c1C(=O)OC(CCC)CCCCCCCc1cc(O)cc(O)c1` (stereo not drawn), the IC50 was 21.8 µM.

For `CCCCOc1ccc(-c2cc3n(c(=N)c2C#N)CCc2cc4c(cc2-3)OCCCO4)cc1OC`, the IC50 is > 40 µM (inactive).

In the case of `COc1ccc(-c2n[nH]n3c2nc(=O)c2ccc(C(=O)NCc4ccco4)cc23)cc1`, the IC50 was > 40 µM (inactive).

As for `Cc1cc(C)c(NC(=O)Cn2c(SCc3cccc(F)c3)nc3cccnc32)c(C)c1`, the IC50 is > 40 µM (inactive).

For `Cc1c(-c2nc(-c3ccccc3Cl)no2)nnn1-c1cccc(F)c1`, the IC50 was > 40 µM (inactive).

As for `Cc1cc(C)cc(NC(=O)C2CC(=O)Nc3nc4ccccc4n32)c1` (stereo not drawn), the IC50 was > 40 µM (inactive).

As to `O=C(c1ccco1)N1CCCC1c1nc(-c2ccccc2)n[nH]1` (stereo not drawn), the IC50 is > 40 µM (inactive).
